Source: patent US4297486A, “Aminoglycoside antibiotic G-367-1 and method for the production thereof” (Toyo Jozo Kabushiki Kaisha, priority 1979, dated 1981)

Columns and labels:
[1] = tested on: Bacillus subtilis ATCC 6633; test: antimicrobial spectrum, MIC by agar dilution method; type: cell-based; conditions: ATCC6633, read-out: minimum inhibitory concentration, MIC
Source text: (§1) The antimicrobial spectrum (minimum inhibitory concentration, MIC) of G-367-1 by agar dilution method is as follows: […]

[2] = tested on: Citrobacter freundii GN346; test: as above; type: cell-based; conditions: read-out: minimum inhibitory concentration, MIC
Source text: as §1

[3] = tested on: Enterobacter aerogenes 0655; test: as above; type: cell-based; conditions: Klebsiella aerogenes, read-out: minimum inhibitory concentration, MIC
Source text: as §1

[4] = tested on: Enterobacter cloacae GN366; test: as above; type: cell-based; conditions: read-out: minimum inhibitory concentration, MIC
Source text: as §1

Escheria coli W3630 = test: as above; type: cell-based; conditions: read-out: minimum inhibitory concentration, MIC
Source text: as §1

[5] = tested on: Escherichia coli NIHJ-JC2; test: as above; type: cell-based; conditions: NIHJJC2, read-out: minimum inhibitory concentration, MIC
Source text: as §1

[6] = tested on: Klebsiella pneunonia ATCC 10031; test: as above; type: cell-based; conditions: ATCC10031, read-out: minimum inhibitory concentration, MIC
Source text: as §1

Proteus morganii 0239 = test: as above; type: cell-based; conditions: Morganella morganii, read-out: minimum inhibitory concentration, MIC
Source text: as §1

Proteus rettgeri ACR = test: as above; type: cell-based; conditions: Providencia rettgeri, read-out: minimum inhibitory concentration, MIC
Source text: as §1

[7] = tested on: Pseudomonas aeruginosa 1946; test: as above; type: cell-based; conditions: read-out: minimum inhibitory concentration, MIC
Source text: as §1

[8] = tested on: Pseudomonas aeruginosa 2512; test: as above; type: cell-based; conditions: read-out: minimum inhibitory concentration, MIC
Source text: as §1

[9] = tested on: Pseudomonas aeruginosa IAM1095; test: as above; type: cell-based; conditions: read-out: minimum inhibitory concentration, MIC
Source text: as §1

[10] = tested on: Pseudomonas aeruginosa ML4561 RP4; test: as above; type: cell-based; conditions: ML4561RP4, read-out: minimum inhibitory concentration, MIC
Source text: as §1

[11] = tested on: Pseudomonas aeruginosa ML4561 Rms164-1; test: as above; type: cell-based; conditions: ML4561RMS1641, read-out: minimum inhibitory concentration, MIC
Source text: as §1

[12] = tested on: Pseudomonas aeruginosa ML4561 Rms166; test: as above; type: cell-based; conditions: ML4561RMS166, read-out: minimum inhibitory concentration, MIC
Source text: as §1

[13] = tested on: Pseudomonas aeruginosa ML4561; test: as above; type: cell-based; conditions: read-out: minimum inhibitory concentration, MIC
Source text: as §1

[14] = tested on: Pseudomonas maltophilia 1850; test: as above; type: cell-based; conditions: Stenotrophomonas maltophilia, read-out: minimum inhibitory concentration, MIC
Source text: as §1

Pseudomonas putida 1842 = test: as above; type: cell-based; conditions: read-out: minimum inhibitory concentration, MIC
Source text: as §1

[15] = tested on: Salmonella enteritidis Gartner; test: as above; type: cell-based; conditions: Salmonella enterica, read-out: minimum inhibitory concentration, MIC
Source text: as §1

Serratia marcescens = test: as above; type: cell-based; conditions: read-out: minimum inhibitory concentration, MIC
Source text: as §1

Shigella sonnei E33 = test: as above; type: cell-based; conditions: read-out: minimum inhibitory concentration, MIC
Source text: as §1

[16] = tested on: Staphylococcus aureus 0119; test: as above; type: cell-based; conditions: read-out: minimum inhibitory concentration, MIC
Source text: as §1

[17] = tested on: Staphylococcus aureus ATCC 6538P; test: as above; type: cell-based; conditions: ATCC6538P, read-out: minimum inhibitory concentration, MIC
Source text: as §1

[18] = tested on: Staphylococcus aureus MS 27; test: as above; type: cell-based; conditions: MS27, read-out: minimum inhibitory concentration, MIC
Source text: as §1

[19] = tested on: Staphylococcus epidermidis sp-al-1; test: as above; type: cell-based; conditions: SPAL1, read-out: minimum inhibitory concentration, MIC
Source text: as §1

[20] = tested on: Streptococcus pyogenes N.Y.5; test: as above; type: cell-based; conditions: read-out: minimum inhibitory concentration, MIC
Source text: as §1

Gram negative bacteria = test: antibacterial effect against Gram negative bacteria; type: cell-based
Source text: as §1

Solubility = type: physicochemical

CNC1C(O)C(OC2C(N)CC(N)C(OC3OC(CN)=CCC3NC=O)C2O)OCC1(C)O (stereo not drawn) [G-367-1]
50 µg/mL: MIC [11]
6.3 µg/mL: MIC [17] | MIC [18] | MIC [20]
> 100 µg/mL: MIC [7] | MIC [8] | MIC [12] | MIC [14] | MIC (Pseudomonas putida 1842)
insoluble: Solubility (Solubility; acetone) | Solubility (Solubility; benzene) | Solubility (Solubility; chloroform) | Solubility (Solubility; ethyl acetate)
1.6 µg/mL: MIC [2] | MIC [3] | MIC [4] | MIC (Escheria coli W3630) | MIC [5] | MIC [6] | MIC [15] | MIC (Shigella sonnei E33) | MIC [19]
soluble: Solubility (Solubility; methanol) | Solubility (Solubility; water)
0.8 µg/mL: MIC [1]
strong antibacterial effect: antibacterial effect (Gram negative bacteria)
3.1 µg/mL: MIC (Proteus morganii 0239) | MIC (Proteus rettgeri ACR)
25 µg/mL: MIC [9] | MIC [13] | MIC (Serratia marcescens)
12.5 µg/mL: MIC [10] | MIC [16]
